Earlier results as cited in patent publication US8329435B2, “Methods for improved uptake of biological molecules” (American Symbolic, LLC, priority 2007, dated 2012).

Conditions: unmodified glutathione

N[C@@H](CCC(=O)N[C@@H](CS)C(=O)NCC(=O)O)C(=O)O [glutathione]
half-life of glutathione in the blood (blood): around 120 seconds | half-life in the blood stream (blood stream): about a minute and a half
